Measured values reported in the CheMixHub viscosity set.

Assay: xn = mol fraction of the nth substance listed

COC(=O)OC + CO
Settings	viscosity [mPa·s]
293.15 K, 101 kPa, x1 = 0.0381	0.5792
293.15 K, 101 kPa, x1 = 0.0818	0.5612
293.15 K, 101 kPa, x1 = 0.1346	0.5507
293.15 K, 101 kPa, x1 = 0.1927	0.5478
293.15 K, 101 kPa, x1 = 0.2626	0.5418
293.15 K, 101 kPa, x1 = 0.348	0.536
293.15 K, 101 kPa, x1 = 0.4533	0.5379
293.15 K, 101 kPa, x1 = 0.5871	0.548
293.15 K, 101 kPa, x1 = 0.7618	0.564
293.15 K, 101.3 kPa, x1 = 0.0537	0.567
293.15 K, 101.3 kPa, x1 = 0.0996	0.551
293.15 K, 101.3 kPa, x1 = 0.2058	0.536
293.15 K, 101.3 kPa, x1 = 0.3135	0.533
293.15 K, 101.3 kPa, x1 = 0.41	0.535
293.15 K, 101.3 kPa, x1 = 0.5086	0.54
293.15 K, 101.3 kPa, x1 = 0.6104	0.545
293.15 K, 101.3 kPa, x1 = 0.7229	0.554
293.15 K, 101.3 kPa, x1 = 0.8338	0.57
293.15 K, 101.3 kPa, x1 = 0.9067	0.586
293.15 K, 101.3 kPa, x1 = 0.9509	0.6
298.15 K, 101 kPa, x1 = 0.0381	0.5373
298.15 K, 101 kPa, x1 = 0.0818	0.5292
298.15 K, 101 kPa, x1 = 0.1346	0.5164
298.15 K, 101 kPa, x1 = 0.1927	0.5119
298.15 K, 101 kPa, x1 = 0.2626	0.5061
298.15 K, 101 kPa, x1 = 0.348	0.503
298.15 K, 101 kPa, x1 = 0.4533	0.5058
298.15 K, 101 kPa, x1 = 0.5871	0.5227
298.15 K, 101 kPa, x1 = 0.7618	0.5374
298.15 K, 101.3 kPa, x1 = 0.0506	0.531
298.15 K, 101.3 kPa, x1 = 0.1042	0.518
298.15 K, 101.3 kPa, x1 = 0.2079	0.502
298.15 K, 101.3 kPa, x1 = 0.3011	0.498
298.15 K, 101.3 kPa, x1 = 0.3963	0.498
298.15 K, 101.3 kPa, x1 = 0.4931	0.504
298.15 K, 101.3 kPa, x1 = 0.589	0.509
298.15 K, 101.3 kPa, x1 = 0.6927	0.517
298.15 K, 101.3 kPa, x1 = 0.8137	0.53
298.15 K, 101.3 kPa, x1 = 0.8997	0.548
298.15 K, 101.3 kPa, x1 = 0.9575	0.566
298.15 K, 101.33 kPa, x1 = 0.0989	0.482
298.15 K, 101.33 kPa, x1 = 0.2009	0.462
298.15 K, 101.33 kPa, x1 = 0.3008	0.458
298.15 K, 101.33 kPa, x1 = 0.4008	0.457
298.15 K, 101.33 kPa, x1 = 0.5	0.462
298.15 K, 101.33 kPa, x1 = 0.6002	0.468
298.15 K, 101.33 kPa, x1 = 0.7016	0.474
298.15 K, 101.33 kPa, x1 = 0.8015	0.496
298.15 K, 101.33 kPa, x1 = 0.9028	0.511
303.15 K, 101 kPa, x1 = 0.0381	0.5011
303.15 K, 101 kPa, x1 = 0.0818	0.4896
303.15 K, 101 kPa, x1 = 0.1346	0.4814
303.15 K, 101 kPa, x1 = 0.1927	0.479
303.15 K, 101 kPa, x1 = 0.2626	0.4723
303.15 K, 101 kPa, x1 = 0.348	0.474
303.15 K, 101 kPa, x1 = 0.4533	0.473
303.15 K, 101 kPa, x1 = 0.5871	0.4884
303.15 K, 101 kPa, x1 = 0.7618	0.5087
303.15 K, 101.3 kPa, x1 = 0.026	0.503
303.15 K, 101.3 kPa, x1 = 0.0707	0.489
303.15 K, 101.3 kPa, x1 = 0.1832	0.469
303.15 K, 101.3 kPa, x1 = 0.2839	0.467
303.15 K, 101.3 kPa, x1 = 0.3823	0.468
303.15 K, 101.3 kPa, x1 = 0.4869	0.472
303.15 K, 101.3 kPa, x1 = 0.5847	0.475
303.15 K, 101.33 kPa, x1 = 0.0989	0.443
303.15 K, 101.33 kPa, x1 = 0.2009	0.432
303.15 K, 101.33 kPa, x1 = 0.3008	0.427
303.15 K, 101.33 kPa, x1 = 0.4008	0.429
303.15 K, 101.33 kPa, x1 = 0.6002	0.439
303.15 K, 101.33 kPa, x1 = 0.7016	0.447
303.15 K, 101.33 kPa, x1 = 0.8015	0.459
303.15 K, 101.33 kPa, x1 = 0.9028	0.48
308.15 K, 101.33 kPa, x1 = 0.0989	0.415
308.15 K, 101.33 kPa, x1 = 0.2009	0.406
308.15 K, 101.33 kPa, x1 = 0.3008	0.404
308.15 K, 101.33 kPa, x1 = 0.4008	0.403
308.15 K, 101.33 kPa, x1 = 0.5	0.406
308.15 K, 101.33 kPa, x1 = 0.6002	0.421
308.15 K, 101.33 kPa, x1 = 0.7016	0.419
308.15 K, 101.33 kPa, x1 = 0.8015	0.433
308.15 K, 101.33 kPa, x1 = 0.9028	0.456
313.15 K, 101 kPa, x1 = 0.0381	0.4382
313.15 K, 101 kPa, x1 = 0.0818	0.4297
313.15 K, 101 kPa, x1 = 0.1346	0.4193
313.15 K, 101 kPa, x1 = 0.1927	0.4192
313.15 K, 101 kPa, x1 = 0.2626	0.4166
313.15 K, 101 kPa, x1 = 0.348	0.4177
313.15 K, 101 kPa, x1 = 0.4533	0.4181
313.15 K, 101 kPa, x1 = 0.5871	0.4314
313.15 K, 101 kPa, x1 = 0.7618	0.4469
323.15 K, 101 kPa, x1 = 0.0381	0.3851
323.15 K, 101 kPa, x1 = 0.0818	0.3724
323.15 K, 101 kPa, x1 = 0.1346	0.3704
323.15 K, 101 kPa, x1 = 0.1927	0.3692
323.15 K, 101 kPa, x1 = 0.2626	0.3685
323.15 K, 101 kPa, x1 = 0.348	0.3693
323.15 K, 101 kPa, x1 = 0.4533	0.3745
323.15 K, 101 kPa, x1 = 0.5871	0.3867
323.15 K, 101 kPa, x1 = 0.7618	0.3997
